Assay results: ChEMBL document CHEMBL1130570, “Cyclic saligenyl phosphotriesters of 2,3-dideoxy-2,3-didehydrothymidine (d4T) a new pro-nucleotide approach” (Bioorg Med Chem Lett, 1997)
Converted amounts (≈) assume the structure as drawn.

Legend:
[1] = Partition coefficient in 1-octanol / phosphate buffer at pH 6.8; type: physicochemical; settings: octanol/water
CCRF-CEM [2] = test: Effective concentration that causes 50 % inhibition of HIV-2 in CEM/TK- cells, was determined.; type: functional, cell-based; settings: Homo sapiens
CCRF-CEM [3] = test: Effective concentration that causes 50 % inhibition of HIV-1 in CEM/0 cells, was determined.; type: functional, cell-based; settings: Homo sapiens
CCRF-CEM [4] = test: Effective concentration that causes 50 % inhibition of HIV-2 in CEM/0 cells, was determined.; type: functional, cell-based; settings: Homo sapiens

Compound | PC [1] | EC50 (CCRF-CEM [2]) [µg/mL] | EC50 (CCRF-CEM [3]) [µg/mL] | EC50 (CCRF-CEM [4]) [µg/mL]
Cc1ccc2c(c1)COP(=O)(OC[C@@H]1C=C[C@H](n3cc(C)c(=O)[nH]c3=O)O1)O2 (some centres undefined) | 5.4 |  |  | 
Cc1cn([C@H]2C=C[C@@H](COP3(=O)OCc4cc([N+](=O)[O-])ccc4O3)O2)c(=O)[nH]c1=O (some centres undefined) | 1.5 | 40 (≈ 91.5 µM) | 0.29 (≈ 0.663 µM) | 0.4 (≈ 0.915 µM)
Cc1cn([C@H]2C=C[C@@H](COP3(=O)OCc4cc(Cl)ccc4O3)O2)c(=O)[nH]c1=O (some centres undefined) | 7.7 | 20 (≈ 46.9 µM) | 0.18 (≈ 0.422 µM) | 0.25 (≈ 0.586 µM)
Cc1cn([C@H]2C=C[C@@H](CO)O2)c(=O)[nH]c1=O [STAVUDINE] | 0.15 | 45 (≈ 201 µM) | 0.4 (≈ 1.78 µM) | 1.45 (≈ 6.47 µM)
Cc1cn([C@H]2C=C[C@@H](COP3(=O)OCc4ccccc4O3)O2)c(=O)[nH]c1=O (some centres undefined) | 1.9 |  |  | 
